According to patent publication US11147272B2, “Pyridone compounds and agricultural and horticultural fungicides comprising the same as active ingredients” (MITSUI CHEMICALS AGRO, INC., priority 2017, dated 2021):

Legend:
[1] = tested on: Colletotrichum orbiculare; test: Test Example H: Anthracnose on cucumber; details: Anthracnose on cucumber; 250 ppm spray, 6 to 10 days after inoculation
Alternaia brassicicola = test: Test Example C: Alternaria sooty spot on cabbage; format: in vivo; details: Alternaria sooty spot on cabbage; control value class
From the text: Seeds of a test plant (cabbage variety: Shikidori) were planted and cultivated until the cotyledons extended.
<Control Value> Control value=100{1−(n/3)}

Phytophthora infestans = test: whole plant or invertebrate; format: in vivo; details: Late blight on tomato; control value class
Botrytis cinerea = test: Test Example B: Gray mold on tomato; details: Gray mold on tomato; control value class
[2] = tested on: Blumeria graminis f. sp. hordei; test: Test Example D: Powdery mildew on barley; details: Powdery mildew on barley; control value class
Puccinia recondita = test: Test Example E: Brown rust on wheat; format: in vivo; details: Brown rust on wheat; control value class
Plasmopara viticola = test: Test Example G: Downy mildew on vine; details: Downy mildew on vine; 250 ppm spray, 7 to 10 days after inoculation
Magnaporthe grisea = test: whole plant or invertebrate; format: in vivo; details: Blast on rice; control value class

Structure (SMILES)	Test H control value [1]	Test C control value (Alternaia brassicicola)	Test F control value (Phytophthora infestans)	Test B control value (Botrytis cinerea)	Test D control value [2]	Test E control value (Puccinia recondita)	Test G control value (Plasmopara viticola)	Test A control value (Magnaporthe grisea)
CCn1c(-c2ccc(C#N)cc2)c(C(=O)C(C)C)cc(Cl)c1=O [compound 234]	L (50% or less control value)	H (more than 50% control value)	L (50% or less control value)	L (50% or less control value)	L (50% or less control value)	L (50% or less control value)	L (50% or less control value)	L (50% or less control value)
CCn1c(-c2ccc(C#N)cc2)c(C(C)(O)C(C)C)cc(Cl)c1=O (centres unmarked) [compound 235]	L (50% or less control value)	H (more than 50% control value)	L (50% or less control value)	L (50% or less control value)	L (50% or less control value)	H (more than 50% control value)	L (50% or less control value)	L (50% or less control value)
CCn1c(-c2ccc(Br)cc2Cl)c(CC(C)C)cc(Cl)c1=O [compound 236]	L (50% or less control value)	H (more than 50% control value)	L (50% or less control value)	H (more than 50% control value)	H (more than 50% control value)	H (more than 50% control value)	L (50% or less control value)	H (more than 50% control value)
CCn1c(-c2ccc(Br)cc2Cl)c(CC(C)C)cc(Br)c1=O [compound 237]	L (50% or less control value)	H (more than 50% control value)	L (50% or less control value)	H (more than 50% control value)	H (more than 50% control value)	H (more than 50% control value)	L (50% or less control value)	L (50% or less control value)
CCn1c(-c2ccc(OC)cc2Cl)c(CC(C)C)ccc1=O [compound 238]	H (more than 50% control value)	H (more than 50% control value)	L (50% or less control value)	H (more than 50% control value)	H (more than 50% control value)	H (more than 50% control value)	H (more than 50% control value)	H (more than 50% control value)
CCn1c(-c2ccc(OC)cc2Cl)c(CC(C)C)cc(Cl)c1=O [compound 239]	H (more than 50% control value)	H (more than 50% control value)	L (50% or less control value)	H (more than 50% control value)	H (more than 50% control value)	H (more than 50% control value)	L (50% or less control value)	H (more than 50% control value)
CCn1c(-c2ccc(OC)cc2Cl)c(CC(C)C)cc(Br)c1=O [compound 240]	H (more than 50% control value)	H (more than 50% control value)	L (50% or less control value)	H (more than 50% control value)	H (more than 50% control value)	H (more than 50% control value)	H (more than 50% control value)	H (more than 50% control value)
CCOC(C)(c1cc(Cl)c(=O)n(CC)c1-c1c(F)cc(OC)cc1F)C(C)C (centres unmarked) [compound 241]	H (more than 50% control value)	H (more than 50% control value)	L (50% or less control value)	H (more than 50% control value)	H (more than 50% control value)	H (more than 50% control value)	L (50% or less control value)	H (more than 50% control value)
CCCOC(C)(c1cc(Cl)c(=O)n(CC)c1-c1c(F)cc(OC)cc1F)C(C)C (centres unmarked) [compound 242]	L (50% or less control value)	H (more than 50% control value)	L (50% or less control value)	L (50% or less control value)	L (50% or less control value)	L (50% or less control value)	L (50% or less control value)	L (50% or less control value)
C=C(c1cc(Cl)c(=O)n(CC)c1-c1c(F)cc(F)cc1F)C(C)C [compound 243]	H (more than 50% control value)	H (more than 50% control value)	L (50% or less control value)	H (more than 50% control value)	H (more than 50% control value)	H (more than 50% control value)	L (50% or less control value)	H (more than 50% control value)
CCn1c(-c2c(F)cc(F)cc2F)c(C(C)(O)C2CCCC2)cc(Cl)c1=O (centres unmarked) [compound 244]	H (more than 50% control value)	H (more than 50% control value)	L (50% or less control value)	H (more than 50% control value)	H (more than 50% control value)	H (more than 50% control value)	L (50% or less control value)	H (more than 50% control value)
CCn1c(-c2c(F)cc(F)cc2F)c(C(C)(OC)C2CCCC2)cc(Cl)c1=O (centres unmarked) [compound 245]	L (50% or less control value)	H (more than 50% control value)	L (50% or less control value)	L (50% or less control value)	L (50% or less control value)	L (50% or less control value)	L (50% or less control value)	L (50% or less control value)
CCn1c(-c2ccc(OC)cc2)c(C(O)C(C)C)cc(Cl)c1=O (centres unmarked) [compound 246]	L (50% or less control value)	H (more than 50% control value)	L (50% or less control value)	L (50% or less control value)	L (50% or less control value)	H (more than 50% control value)	L (50% or less control value)	L (50% or less control value)
